Data as given in patent US9902986B2, “Enterobactin conjugates and uses thereof” (Massachusetts Institute of Technology, priority 2013, dated 2018).

Tests used:
E. coli H1187 (fepA-) = assay: Growth recovery assay, E. coli (fepA-); type: cell-based, Escherichia coli; conditions: 200 μM DP
Method: (§1) General microbiology methods are as described herein or according to processes known in the art. […] Bacterial growth was assayed by measuring OD600 using a BioTek Synergy HT plate reader. Each well condition was prepared in duplicate and three independent replicates of each assay were conducted on different days. The resulting mean OD600 are reported and the error bars are the standard deviation of the mean obtained from the three independent replicates.
(§2) Three non-pathogenic E. coli strains were employed that are defective in enterobactin synthesis, enterobactin transport, or ferric enterobactin utilization in growth recovery assays. E. coli ATCC 33475 (ent-) cannot biosynthesize enterobactin, but retains the capacity to import and metabolize the siderophore.^71 E. coli H1187 (fepA-) lacks the outer membrane enterobactin receptor. E. coli K-12 JW0576 (fes-) can accumulate ferric enterobactin, but cannot release the iron because it is deficient in the enterobactin esterase Fes. As a result of these defects in iron metabolism, all three strains grow poorly under conditions of iron limitation.^71 The iron chelator 2,2′-dipyridyl (dipyridyl, DP) was used to generate iron-deficient conditions and promote expression of siderophore transport machinery in the growth recovery assays.

[1] = tested on: E. coli K-12 JW0576 (fes-); assay: Growth recovery assay, E. coli (fes-); type: cell-based, Escherichia coli; conditions: 200 μM DP
Method: as §1, §2

[2] = tested on: P. aeruginosa K407 (pvd-, pFr-); assay: Growth recovery assay, P. aeruginosa (pfeA-); type: cell-based, Pseudomonas aeruginosa; conditions: 600 μM DP; for growth inhibition of P. aeruginosa (pfeA-): micromolar concentrations
Method: as §1
(§3) It was next sought to determine whether the enterobactin-cargo conjugates provided growth recovery for Pseudomonas aeruginosa PAO1. This Gram-negative opportunistic human pathogen synthesizes and exports two siderophores, pyoverdine (pvd) and pyochelin (pch), and employs multiple additional mechanisms for iron acquisition.^72,73 P. aeruginosa utilizes enterobactin as a xenosiderophore, and the genes pfeA^74,75 and pirA^76 encode outer membrane enterobactin transporters. Similar to the E. coli experiments, P. aeruginosa strains deficient in siderophore production or utilization were used in growth recovery assays.

FepA = FepA (Escherichia coli, UniProt P05825); conditions: E. coli outer membrane transporter; cited from earlier work
Chain of FepA (P05825 23-746): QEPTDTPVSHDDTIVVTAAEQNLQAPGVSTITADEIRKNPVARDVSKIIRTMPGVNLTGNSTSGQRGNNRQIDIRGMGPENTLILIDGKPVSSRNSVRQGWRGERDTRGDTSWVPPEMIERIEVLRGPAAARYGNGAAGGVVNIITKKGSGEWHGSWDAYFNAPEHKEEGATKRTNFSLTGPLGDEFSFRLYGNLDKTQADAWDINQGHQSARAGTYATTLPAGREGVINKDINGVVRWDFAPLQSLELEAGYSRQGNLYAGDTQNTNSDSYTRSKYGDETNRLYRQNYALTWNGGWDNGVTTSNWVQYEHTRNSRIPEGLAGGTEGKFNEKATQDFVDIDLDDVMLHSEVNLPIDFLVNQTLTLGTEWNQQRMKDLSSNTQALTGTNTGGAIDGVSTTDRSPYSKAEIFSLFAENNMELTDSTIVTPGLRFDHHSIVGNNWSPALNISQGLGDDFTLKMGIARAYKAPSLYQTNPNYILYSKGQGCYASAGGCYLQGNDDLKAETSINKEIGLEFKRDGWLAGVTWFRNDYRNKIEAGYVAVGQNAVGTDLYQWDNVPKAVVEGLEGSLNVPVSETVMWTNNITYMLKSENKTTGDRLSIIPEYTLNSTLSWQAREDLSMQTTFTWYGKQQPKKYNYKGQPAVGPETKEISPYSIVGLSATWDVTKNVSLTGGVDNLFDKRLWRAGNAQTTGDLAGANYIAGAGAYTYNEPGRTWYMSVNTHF

Lipocalin-2 (lcn2) = Lipocalin-2 (lcn2) (Homo sapiens, UniProt P80188); conditions: cited from earlier work
Chain of Lipocalin-2 (lcn2) (P80188 21-198): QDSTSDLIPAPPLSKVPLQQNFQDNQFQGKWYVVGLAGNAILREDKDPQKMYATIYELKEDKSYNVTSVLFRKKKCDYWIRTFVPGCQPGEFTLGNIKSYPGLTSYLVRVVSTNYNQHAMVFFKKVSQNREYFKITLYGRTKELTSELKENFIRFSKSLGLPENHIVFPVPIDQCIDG

[3] = tested on: E. coli ATCC 33475 (ent-); type: cell-based, Escherichia coli; conditions: 10 μM
Method: as §1, §2

[4] = tested on: P. aeruginosa K648 (pvd-, pch-); type: cell-based, Pseudomonas aeruginosa
Method: as §1, §3

[5] = tested on: human colon epithelial T84 cells; assay: Cytotoxicity study using MTT; conditions: 10 μM, 24 h
Method: Colon epithelial T84 cell line (purchase from ATCC) were grown in DMEM/F12 medium containing penicillin (100 I.U./mL) and streptomycin (100 μg/mL). The cells were passed and plated in 96-well flat-bottom plates ˜16 h before treatment. Each well contained 90 µL of the cell culture at a density of 10^5 cells/mL. Stock solutions of the tested conjugates (e.g., Ent-Amp) were prepared in sterile filtered 10% DMSO/water, and 10 μL of the each solution was added to each well. The plate was incubated at 37° C. and under 5% CO2 for 24 h and 20 μL of MTT (5 mg/mL in sterile PBS) was added to each well. The plate was incubated at 37° C. for another 4 h, and the supernatant was removed from each well. DMSO (100 μL) was added to the wells to afford a purple solution, and the absorbance at 550 nm was recorded by using a plate reader. Blank readings were generated by wells that only contain the growth medium but no cells. The assay was repeated in three independent trials, and the resulting mean and standard errors are reported. […] Ent-Amp, Ent, and Amp were incubated with human colon epithelial T84 cells for 24 h.
In another exemplary experiment, the human colon epithelial T84 cell line was purchased from ATCC and cultured in 1:1 DMEM/F12 medium with 10% fetal bovine serum, 1% penicillin, and streptomycin (v/v, ATCC). The cells were grown to approximately 95% confluency and treated with 3 mL of trypsin-EDTA (Corning). A 12-mL portion of fresh medium was added to the detached cells, and the T84 cell suspension was centrifuged (600 rpm×5 min, 37° C.). The supernatant was discarded, and the cell pellet was resuspended in 6 mL of the fresh culture media. The concentration of cells was quantified by using a manual hemocytometer (VWR International) and adjusted to 1×10^5 cells/mL. A 90-μL aliquot of T84 cells were then added to 96-well plates and incubated at 37° C. and 5% CO2 for 24 h. […] DMSO (100 μL) was added to each well and the absorbance at 550 nm was recorded by using a plate reader. Blank readings were recorded on wells that only contained the medium. […]

[6] = three catecholate groups; cited from earlier work

Compound	growth restoration of E. coli (fepA-) (E. coli H1187 (fepA-))	growth restoration of E. coli (fes-) [1]	growth enhancement of P. aeruginosa (pfeA-) [2]	growth inhibition of P. aeruginosa (pfeA-) [2]	further results
O=C(NCCOCCOCCOCCNC(=O)C1CCCCC1)c1cc(O)c(O)c(C(=O)N[C@H]2COC(=O)[C@@H](NC(=O)c3cccc(O)c3O)COC(=O)[C@@H](NC(=O)c3cccc(O)c3O)COC2=O)c1 [conjugate 30, N^3-((3S,7S,11S)-7,11-Bis(2,3-dihydroxybenzamido)-2,6,10-trioxo-1,5,9-trioxacyclododecan-3-yl)-N^1-(1-cyclohexyl-1-oxo-5,8,11-trioxa-2-azatridecan-13-yl)-4,5-dihydroxyisophthalamide]	No growth restoration	No growth restoration	no growth enhancement	growth inhibition at micromolar concentrations	
O=C(N[C@H]1COC(=O)[C@@H](NC(=O)c2cccc([O-])c2[O-])COC(=O)[C@@H](NC(=O)c2cccc([O-])c2[O-])COC1=O)c1cccc([O-])c1[O-].[Fe+3] [ferric enterobactin]					affinity of FepA for ferric enterobactin (FepA): sub-nanomolar affinity; affinity of lcn2 for ferric enterobactin (Lipocalin-2 (lcn2)): low-nanomolar affinity
Vancomycin-PEG-Ent [conjugate 42]					effect on E. coli growth ([3]; +DP): inhibited the growth of E. coli; effect on growth of P. aeruginosa (pvd-, pch-) ([4]; ±DP): growth inhibitory effect
CC(C)(C)OC(=O)NCCOCCOCCOCCNC(=O)c1cc(O)c(O)c(C(=O)N[C@H]2COC(=O)[C@@H](NC(=O)c3cccc(O)c3O)COC(=O)[C@@H](NC(=O)c3cccc(O)c3O)COC2=O)c1 [conjugate 29, Tert-butyl(1-(3-(((3S,7S,11S)-7,11-bis(2,3-dihydroxybenzamido)-2,6,10-trioxo-1,5,9-trioxacyclododecan-3-yl)carbamoyl)-4,5-dihydroxyphenyl)-1-oxo-5,8,11-trioxa-2-azatridecan-13-yl)carbamate]	No growth restoration	No growth restoration			
O=C(N[C@H]1COC(=O)[C@@H](NC(=O)c2cccc(O)c2O)COC(=O)[C@@H](NC(=O)c2cccc(O)c2O)COC1=O)c1cccc(O)c1O [L-Ent, Enterobactin]			no growth enhancement	growth inhibition at micromolar concentrations	OD600 of E. coli (ent-) culture ([3]; 50% MHB, 200 μM DP, 30° C., t=19 h): ~0.2; OD600 of P. aeruginosa (pvd-, pch-) culture ([4]; low-micromolar concentrations, 50% MHB, 600 μM DP, 30° C., t=19 h): ~0.40; decrease of percent survival of T84 cells [5]: approximately 30%; Ka for Fe(III) coordination [6]: ~10^49 M^−1
